Data taken from patent US20240190872A1, “FABI INHIBITORS FOR GRAM-NEGATIVE PATHOGENS” (THE BOARD OF TRUSTEES OF THE UNIVERSITY OF ILLINOIS, priority 2021, published 2024).
In brackets after ≈: the same amount, converted by molar mass. Where two headings read alike, the source gives them in different places.

How the values were obtained:
K. pneumoniae BAA 2472 = assay: microbe, parasite or virus in culture; type: cell-based; conditions: Klebsiella pneumoniae, BAA2472, read-out: MIC K. pneumoniae BAA 2472
Summary of the method: (§1)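 MICs by CLSI broth microdilution in cation-adjusted Mueller-Hinton broth, performed in biological triplicate. Strains: efflux-deficient E. coli ΔtolC (JW5503, KEIO collection) and K. pneumoniae BAA-2472 (ATCC).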

in vitro [1] = conditions: mouse, plasma
HERG = HERG (Homo sapiens (Human), UniProt Q12809); assay: cell-based
E. coli ΔtolC (JW5503) = type: cell-based
Summary of the method: as §1

A. baumannii FabI = A. baumannii FabI (Acinetobacter baumannii, UniProt D0CAD5); assay: biochemical; conditions: purified FabI, apparent inhibition constant; read-out: A. baumannii FabI Ki^app
Protocol: Mode of Action. To probe the effects of varying ring systems and amine placement on FabI target engagement, the apparent inhibition constants (Ki^app) for select compounds were determined using purified FabI. The goal of these studies was two-fold, to comparatively assess fabimycin, Debio-1452-NH3, and Debio-1452, and to also assess differential activity against the E. coli and A. baumannii versions of FabI. FabI from E. coli and A. baumannii were recombinantly expressed and purified, and the ability for each compound to inhibit the activity of these enzymes was evaluated using a standard FabI enzyme assay.
In vitro FabI inhibition assay. NADH (Sigma-Aldrich, Cat# N8129) and crotonoyl-CoA (Sigma-Aldrich, Cat# 28007) were both diluted into activity buffer [100 mM potassium glutamate (pH 7.8)], and working solution was dispensed into two columns of round-bottom 96-well plate (330 μL per well). Inhibitors, dissolved in DMSO at 200× final concentration, were added to each well via multichannel pipette (2.48 μL per well). After thorough mixing, this mixture was transferred to UV-transparent plate (UV-STAR half-area 96-well plate, Greiner Bio-One, Cat#675801, 100 μL per well, three technical replicates per inhibitor concentration). Plate was placed in plate-reader (SpectraMax 190, Molecular Devices) under temperature control (25° C.), and temperature was allowed to equilibrate. Fresh aliquot of enzyme from −80° C. was thawed on ice and diluted in activity buffer. Enzyme working solution was added to plate (50 μL per well, 20 nM enzyme final). After shaking for 5 s, reaction progress was monitored by absorbance at 340 nm every 15 s for 90 min. Linear portion of reaction progress curve was fit using plate-reader software (SoftMax Pro 7.0). Percent activity was calculated relative to DMSO-only and no-enzyme controls in each plate. Percent activity curves were fit to Morrison's quadratic using Graphpad Prism 6.0 to obtain apparent Ki.

in vitro [2] = conditions: human, plasma
A. baumannii AR 0033 = assay: microbe, parasite or virus in culture; type: cell-based; conditions: Acinetobacter baumannii, AR0033, read-out: MIC A. baumannii AR 0033
Summary of the method: (§2)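 Broth microdilution per CLSI guidelines in cation-adjusted Mueller-Hinton broth, performed in biological triplicate.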

E. coli AR 0085 = assay: microbe, parasite or virus in culture; type: cell-based; conditions: Escherichia coli, AR0085, read-out: MIC E. coli AR 0085
Summary of the method: as §2

A. baumannii AR 0313 = assay: microbe, parasite or virus in culture; type: cell-based; conditions: Acinetobacter baumannii, AR0313, read-out: MIC A. baumannii AR 0313
Summary of the method: as §2

K. pneumoniae AR 0113 = assay: microbe, parasite or virus in culture; type: cell-based; conditions: Klebsiella pneumoniae, AR0113, read-out: MIC K. pneumoniae AR 0113
Summary of the method: as §2

A. baumannii AR 0299 = assay: microbe, parasite or virus in culture; type: cell-based; conditions: Acinetobacter baumannii, AR0299, read-out: MIC A. baumannii AR 0299
Summary of the method: as §2

A. baumannii AR 0273 = assay: microbe, parasite or virus in culture; type: cell-based; conditions: Acinetobacter baumannii, AR0273, read-out: MIC A. baumannii AR 0273
Summary of the method: as §2

K. pneumoniae AR 0066 = assay: microbe, parasite or virus in culture; type: cell-based; conditions: Klebsiella pneumoniae, AR0066, read-out: MIC K. pneumoniae AR 0066
Summary of the method: as §2

E. coli AR 0048 = assay: microbe, parasite or virus in culture; type: cell-based; conditions: Escherichia coli, AR0048, read-out: MIC E. coli AR 0048
Summary of the method: as §2

K. pneumoniae AR 0560 = assay: microbe, parasite or virus in culture; type: cell-based; conditions: Klebsiella pneumoniae, AR0560, read-out: MIC K. pneumoniae AR 0560
Summary of the method: as §2

E. coli MG1655 = assay: Antimicrobial susceptibility test (MIC); type: cell-based; conditions: Escherichia coli, MG1655
Summary of the method: (§3)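 CLSI micro-dilution broth method in cation-adjusted Mueller-Hinton broth, in biological triplicate; human serum (pooled, filtered) was also used.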

H. sapiens HFF-1 = assay: In-vitro cytotoxicity; type: cell-based
S. aureus ATCC 29213 = assay: Antimicrobial susceptibility test (MIC), micro-dilution broth; type: cell-based; conditions: Staphylococcus aureus, ATCC29213
Summary of the method: as §3

H. sapiens A549 = assay: In-vitro cytotoxicity; type: cell-based
E. coli ATCC 25922 = assay: MIC; type: cell-based; conditions: Escherichia coli, ATCC25922; line under drawing, Table 8-1

Sequence of A. baumannii FabI (D0CAD5 1-288): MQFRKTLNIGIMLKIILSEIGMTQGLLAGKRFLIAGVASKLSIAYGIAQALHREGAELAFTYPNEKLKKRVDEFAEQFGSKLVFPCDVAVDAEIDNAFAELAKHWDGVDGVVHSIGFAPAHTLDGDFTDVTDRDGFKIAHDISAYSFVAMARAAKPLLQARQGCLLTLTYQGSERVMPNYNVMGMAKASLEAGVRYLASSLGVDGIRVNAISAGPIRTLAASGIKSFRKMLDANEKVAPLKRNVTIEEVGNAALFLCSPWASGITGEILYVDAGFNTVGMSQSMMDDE
Sequence of HERG (Q12809 whole entry): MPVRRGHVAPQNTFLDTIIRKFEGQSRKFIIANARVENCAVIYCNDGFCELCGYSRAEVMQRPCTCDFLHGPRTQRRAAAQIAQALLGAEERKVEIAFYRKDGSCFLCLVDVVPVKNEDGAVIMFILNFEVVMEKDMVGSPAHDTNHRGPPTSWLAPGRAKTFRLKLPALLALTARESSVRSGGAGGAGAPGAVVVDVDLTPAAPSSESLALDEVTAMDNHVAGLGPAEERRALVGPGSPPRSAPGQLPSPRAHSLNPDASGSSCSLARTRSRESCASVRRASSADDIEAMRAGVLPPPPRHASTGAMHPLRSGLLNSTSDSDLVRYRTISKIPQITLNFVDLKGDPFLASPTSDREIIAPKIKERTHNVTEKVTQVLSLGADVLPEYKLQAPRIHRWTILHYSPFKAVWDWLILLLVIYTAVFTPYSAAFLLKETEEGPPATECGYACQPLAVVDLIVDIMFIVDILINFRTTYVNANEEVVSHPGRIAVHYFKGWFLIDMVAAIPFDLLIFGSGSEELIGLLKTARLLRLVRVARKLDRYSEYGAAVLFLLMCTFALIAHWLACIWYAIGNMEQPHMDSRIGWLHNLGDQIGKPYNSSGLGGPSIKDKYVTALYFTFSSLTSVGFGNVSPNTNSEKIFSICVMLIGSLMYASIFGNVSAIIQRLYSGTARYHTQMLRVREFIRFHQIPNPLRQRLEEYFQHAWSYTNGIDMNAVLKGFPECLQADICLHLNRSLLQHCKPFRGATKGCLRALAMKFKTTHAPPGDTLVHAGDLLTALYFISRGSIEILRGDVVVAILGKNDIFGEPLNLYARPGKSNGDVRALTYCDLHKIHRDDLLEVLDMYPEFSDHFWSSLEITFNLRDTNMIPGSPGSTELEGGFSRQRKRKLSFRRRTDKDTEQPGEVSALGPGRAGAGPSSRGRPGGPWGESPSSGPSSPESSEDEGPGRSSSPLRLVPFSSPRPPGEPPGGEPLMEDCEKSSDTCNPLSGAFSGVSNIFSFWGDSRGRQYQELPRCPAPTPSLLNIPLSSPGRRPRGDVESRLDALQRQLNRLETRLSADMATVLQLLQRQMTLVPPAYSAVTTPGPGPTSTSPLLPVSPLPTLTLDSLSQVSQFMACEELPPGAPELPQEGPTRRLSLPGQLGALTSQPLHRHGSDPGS

## Cc1c(CN(C)C(=O)/C=C/c2cnc3c(c2)CCC(=O)N3)oc2ccccc12 [Debio-1452, (E)-N-methyl-N-((3-methylbenzofuran-2-yl)methyl)-3-(7-oxo-5,6,7,8-tetrahydro-1,8-naphthyridin-3-yl)acrylamide, reference compound]
K. pneumoniae BAA 2472
  MIC: > 32 µg/mL
In vitro [1]
  fraction unbound: 0.006
HERG
  IC50: 5.5 µM
E. coli ΔtolC (JW5503); efflux deficient E. coli ΔtolC
  MIC E. coli ΔtolC: 0.062 µg/mL (≈ 0.165 µM)
A. baumannii FabI
  Ki: 0.799 ± 0.229 µM
In vitro [2]
  fraction unbound: 0.019
A. baumannii AR 0033
  MIC: > 32 µg/mL
E. coli AR 0085
  MIC: > 32 µg/mL
A. baumannii AR 0313
  MIC: > 32 µg/mL
K. pneumoniae AR 0113
  MIC: > 32 µg/mL
A. baumannii AR 0299
  MIC: > 32 µg/mL
A. baumannii AR 0273
  MIC: > 32 µg/mL
K. pneumoniae AR 0066
  MIC: > 32 µg/mL
E. coli AR 0048
  MIC: > 32 µg/mL
K. pneumoniae AR 0560
  MIC: > 32 µg/mL
E. coli MG1655
  MIC: > 32 µg/mL
H. sapiens HFF-1
  inhibition at 30 µM: 18 ± 6%
H. sapiens HFF-1; cytotoxicity
  IC50: 165 ± 42 µM
S. aureus ATCC 29213; S. aureus ATCC 29213, read-out: MIC S. aureus 29213
  MIC: 0.008 µg/mL (≈ 0.0213 µM)
H. sapiens A549
  inhibition at 30 µM: 13 ± 6%
H. sapiens A549; cytotoxicity
  IC50: 166 ± 12 µM

## O=C1CCc2cc(/C=C/C(=O)N3CC4C=C(c5ccccc5)CC4C3)cnc2N1 (stereo not drawn) [reference compound]
E. coli ATCC 25922
  MIC: > 32 µg/mL
E. coli ΔtolC (JW5503); line under drawing, Table 8-1
  MIC E. coli ΔtolC mutant: MIC E. coli ΔtolC mutant = ≤0.03 ug/mL
S. aureus ATCC 29213; line under drawing, Table 8-1, read-out: MIC S. aureus ATCC 29213
  MIC: 0.016 µg/mL (≈ 0.0415 µM)
